# Source: patent publication US20090312414A1, “Treatment Of Lower Urinary Tract Dysfunction With CB2-Receptor-Selective Agonists” (priority 2008, published 2009)
# System: conscious normal rats
# Assay: Cystometry in normal conscious rats
# Type: in vivo, rat
# Conditions: for Residual volume (RV): ns
# Text: This study involved a determination of the acute effect of the compound of Formula I, a peripherally-selective, CB2-receptor-selective agonist, on normal bladder function in normal conscious freely moving rats using cystometry.
# Female Sprague-Dawley rats, weighing 225-300 g, were maintained under standard laboratory conditions with a 12:12 light/dark cycle and free access to food pellets and water. After surgical procedures, rats were individually caged to prevent chewing of the catheters. For surgical procedures, the rats were anesthetized by intraperitoneal injection of 75 mg/kg ketamine (Ketalar®, Pfizer, Sweden) and 15 mg/kg xylazine (Rompun®, Bayer, Sweden).
# The bladder was exposed via a mid-line incision of the lower abdomen. A saline-filled polyethylene catheter (PE-50, Clay-Adams, Parsippany, N.J.) with a cuff was inserted into the dome of the bladder and held in place with a purse string suture. The catheter was tunneled subcutaneously and anchored at the neck with a silk ligature, and the free end of the catheter was sealed.
# In the same surgical session as for implantation of the bladder catheter, access to the femoral vein was given via the mid-line incision of the lower abdomen after careful blunt dissection of the subcutaneous fascias and the femoral vascular sheath. A stretched PE-50 catheter filled with heparinized saline was introduced into the femoral vein and forwarded with its tip in the iliac vein. The catheter was then secured in position by two ligatures, tunneled subcutaneously to the skin of the back and anchored as described above, and the free end of the catheter was sealed.
# The appropriate solution of the compound of Formula I was prepared on the day of the experiment using phosphate-buffered saline (“PBS”) as the vehicle. The compound of Formula I was dissolved to obtain a 10 mg/ml stock solution. For the 3 mg/kg dose, each animal was administered individually weight-controlled amounts in a volume of approximately 100 μl IV of the stock solution. For lower doses, appropriate dilutions of the stock solution were made and animals were administered similar volumes containing 0.3 or 1 mg/kg. […] After administration of the compound of Formula I, 100 μl of heparinized saline was also infused to flush the IV catheter, and a 90 to 120-minute observation period was allowed until final stable micturitions were obtained. Each animal served as its own control.
# Cystometry was performed without anesthesia three days after the implantation of bladder catheters in normal rats. The conscious rats were placed in metabolic cages without restraint and the bladder catheters were connected via a T-tube to a pressure transducer (P23 DC; Statham Instruments Inc., Oxnard, Calif.) and a microinjection pump (CMA 100; Carnegie Medicine AB, Solna, Sweden). Micturition volumes were recorded with a fluid collector connected to a force displacement transducer (FT 03 D, Grass Instrument Co., Quincy, Mass.). Room-temperature saline was infused into the bladder continuously at a rate of 10 ml/h. Pressures and micturition volumes were recorded continuously with Acq Knowledge 3.8.1 software and a MP100 data acquisition system (Biopac Syst. Inc. Santa Barbara, Calif.) connected to a Grass polygraph (Model 7E, Grass Instrument Co). At the beginning of cystometry, the bladder was emptied via the bladder catheter.
# The following urodynamic parameters were investigated: micturition pressure (“MP;” maximum bladder pressure during micturition), threshold pressure (“ThP”; bladder pressure at start of detrusor contraction), flow pressure (“FP”; bladder pressure when urethra opens), micturition interval (“MI”; time between two micturitions), micturition volume (“MV”; volume of the expelled urine), and residual volume (“RV”; volume left in bladder after a micturition). […]
smiles,measurement,setting,value
CCCCCCC(C)(C)c1cc(O)c([C@H]2CC(=O)[C@H]3C[C@@H]2C3(C)C)c(OC(=O)/C=C/C(=O)O)c1 [Formula I],Basal pressure (BP),0.3 mg/kg IV,4.7±2.0 cmH2O
same,Micturition pressure (MP),0.3 mg/kg IV,64.3±12.3 cmH2O
same,Rats responding with increased MI,0.3 mg/kg IV,5 out of 8
same,Rats responding with increased MV,0.3 mg/kg IV,5 out of 8
same,Rats responding with increased ThP,0.3 mg/kg IV,5 out of 8
same,Bladder capacity (BC),"0.3 mg/kg IV, not significant",0.98 ± 0.21 mL
same,Flow pressure (FP),"0.3 mg/kg IV, not significant",34.1±8.8 cmH2O
same,Micturition interval (MI),"0.3 mg/kg IV, not significant",260 ± 69 s
same,Micturition volume (MV),"0.3 mg/kg IV, not significant",0.93 ± 0.21 mL
same,Threshold pressure (ThP),"0.3 mg/kg IV, not significant",16.5±2.2 cmH2O
same,Residual volume (RV),0.3 mg/kg IV,0.01 ± 0.01 mL
same,Basal pressure (BP),1 mg/kg IV,3.7±1.2 cmH2O
same,Micturition pressure (MP),1 mg/kg IV,65.1±8.6 cmH2O
same,Rats responding with increased MI,1 mg/kg IV,3 out of 8
same,Rats responding with increased MV,1 mg/kg IV,6 out of 8
same,Rats responding with increased ThP,1 mg/kg IV,1 out of 8
same,Bladder capacity (BC),"1 mg/kg IV, not significant",0.91 ± 0.17 mL
same,Flow pressure (FP),"1 mg/kg IV, not significant",26.0±2.4 cmH2O
same,Micturition interval (MI),"1 mg/kg IV, not significant",251 ± 63 s
same,Micturition volume (MV),"1 mg/kg IV, not significant",0.90 ± 0.17 mL
same,Threshold pressure (ThP),"1 mg/kg IV, not significant",12.6±2.0 cmH2O
same,Residual volume (RV),1 mg/kg IV,0.01 ± 0.01 mL
same,Basal pressure (BP),3 mg/kg IV,9.0±4.3 cmH2O
same,Micturition pressure (MP),3 mg/kg IV,87.3±18.9 cmH2O
same,Rats responding with increased FP,3 mg/kg IV,6 out of 8
same,Rats responding with increased MI,3 mg/kg IV,7 out of 8
same,Rats responding with increased MV,3 mg/kg IV,7 out of 8
same,Rats responding with increased ThP,3 mg/kg IV,7 out of 8
same,Threshold pressure (ThP),"3 mg/kg IV, ANOVA ns, paired t-test vs. baseline p=0.05",38.1±13.9 cmH2O
same,Flow pressure (FP),"3 mg/kg IV, not significant",62.3±18.4 cmH2O
same,Residual volume (RV),3 mg/kg IV,0.02 ± 0.02 mL
same,Bladder capacity (BC),"3 mg/kg IV, p<0.001 vs. baseline, p<0.005 vs. vehicle",1.42 ± 0.18 mL
same,Micturition volume (MV),"3 mg/kg IV, p<0.001 vs. baseline, p<0.01 vs. vehicle",1.4 ± 0.2 mL
same,Micturition interval (MI),"3 mg/kg IV, p<0.02 vs. baseline",423 ± 63 s
same,Animals responding with an increase or decrease in FP,0.3 and 1 mg/kg IV,50%
same,Animals with a decrease in BP,"all doses (0.3, 1, 3 mg/kg IV)",37.5-50 % of rats
same,Animals with an increase in BP,"all doses (0.3, 1, 3 mg/kg IV)",25-37.5 % of rats
same,Animals with no change in BP,"all doses (0.3, 1, 3 mg/kg IV)",12.5-25 % of rats
same,Rats responding with increased BC,"all doses (0.3, 1, 3 mg/kg IV)",6 out of 8
